The text below walks through data of the supplement of paper PMC10307832.

Holding throughout (test): relative viability (nuclei count vs DMSO), 5 days (fraction); higher = more cells survive
Compound in assay [1]: C1COCCN1C2=NC(=NC3=C2OC4=C3C=CC=N4)C5=CC(=CC=C5)NC(=O)C6=CN=C(C=C6)N + CC(=O)c1c(C)c2cnc(Nc3ccc(N4CCNCC4)cn3)nc2n(C2CCCC2)c1=O [Palbociclib] (partner 0.5 µM)
The essentials: (§1)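 A single step with final 0.05% Triton X-100, 1% formaldehyde and 1 ug/ml Hoechst fixed the cells and stained nuclei 5 days after treatment. Lung cancer cell lines in 1536-well plates had been treated by pin tool the day after seeding with one drug alone or a fixed anchor-drug dose plus five library-drug doses (not always all listed) in √10 steps, and nuclei were counted on 4× images. Relative viability is the ratio of nuclei in treated wells to nuclei in vehicle wells, taken as the median of duplicate plates.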

Compound in assay [2]: CN1CCC(CNc2ccc3ncc(-c4cccc(OC(F)(F)F)c4)n3n2)CC1 [SGI-1776] + Nc1ncn([C@H]2C[C@H](O)[C@@H](CO)O2)c(=O)n1 [Decitabine] (partner 2 µM)
Summed up: as §1

Compound in assay [3]: Nc1ccccc1NC(=O)c1ccc(CNC(=O)OCc2cccnc2)cc1 [Entinostat] + CS(=O)(=O)N1CCN(Cc2cc3nc(-c4cccc5[nH]ncc45)nc(N4CCOCC4)c3s2)CC1 [Pictilisib] (partner 1 µM)
The essentials:
as §1

Compound in assay [4]: Nc1ccccc1NC(=O)c1ccc(CNC(=O)OCc2cccnc2)cc1 [Entinostat] + O=C(CCCCCCC(=O)Nc1ccccc1)NO [Vorinostat] (partner 1 µM)
The essentials: as §1

As for UMC-11, the relative viability is 0.347 in assay [1] (first compound 0.02 µM); 0.327 in assay [1] (first compound 0.06325 µM); 0.344 in assay [1] (first compound 0.2 µM); 0.324 in assay [1] (first compound 0.6325 µM); 0.265 in assay [1] (first compound 2 µM); 0.588 in assay [2] (first compound 0.08 µM). Moreover, the relative viability in assay [2] (first compound 0.8 µM) was found to be 0.571; in assay [2] (first compound 2.53 µM), 0.654; in assay [2] (first compound 8 µM), 0.467; in assay [3] (first compound 0.02 µM), 0.865; in assay [3] (first compound 0.06325 µM) it was 0.848; in assay [3] (first compound 0.2 µM) it was 0.836. The relative viability in assay [3] (first compound 0.6325 µM) is 0.144; in assay [3] (first compound 2 µM), 0.136; in assay [4] (first compound 0.02 µM) it was 0.43; in assay [4] (first compound 0.06325 µM), 0.321; in assay [4] (first compound 0.2 µM) it was 0.242; in assay [4] (first compound 0.6325 µM) it was 0.181. For the same cell line, the relative viability in assay [4] (first compound 2 µM) turned out to be 0.12.
